# Key:
# [1] = test system: IL-6-induced Stat3 activation in NIH3T3; experiment: IL-6-induced Stat3 activation in NIH3T3 (EMSA of nuclear extracts); format: cell-based, mouse
# Method: FIGS. 3A-3D. Inhibition of Stat3-mediated gene expression by PLATINUM-401. (FIG. 3A) and (FIG. 3B) v-Src-transformed mouse fibroblasts that stably express Stat3-dependent (NIH3T3/v-Src/pLucTKS3) and Stat3-independent (NIH3T3/v-Src/pRLSRE) luciferase reporters or β-galactosidase (β-gal), as well as normal mouse fibroblast (NIH3T3) transiently transfected with pLucTKS3, pGL2-VEGF-Luc, NFkB-Luc or pLucSRE together with or without v-Src were treated with or without PLATINUM-401 for 48 h. Cytosolic extracts were then prepared from cells for luciferase and […] activities measurements. Values are the means and S.D. of three to five independent assays; (FIG. 3C) and (FIG. 3D) Nuclear extracts or whole cell lysates were prepared from IL-6-stimulated normal mouse fibroblasts (NIH3T3) or their v-Src-transformed counterpart (NIH3T3/v-Src) that are treated with or without PLATINUM-401 for different times. Samples of equal total proteins were then subjected to in vitro DNA-binding activity and EMSA analysis or for SDS-PAGE and Western blot analysis for phosphorylated and total Stat3. […]
# (§1) To further investigate the activities of PLATINUM-401, the inventors treated malignant cells and measured effects on Stat3 signaling. […]
# pLucSRE = experiment: c-fos promoter-driven luciferase reporter assay; format: cell-based; details: transient transfection in mouse fibroblasts
# Method: FIGS. 3A-3D. Inhibition of Stat3-mediated gene expression by PLATINUM-401. (FIG. 3A) and (FIG. 3B) v-Src-transformed mouse fibroblasts that stably express Stat3-dependent (NIH3T3/v-Src/pLucTKS3) and Stat3-independent (NIH3T3/v-Src/pRLSRE) luciferase reporters or β-galactosidase (β-gal), as well as normal mouse fibroblast (NIH3T3) transiently transfected with pLucTKS3, pGL2-VEGF-Luc, NFkB-Luc or pLucSRE together with or without v-Src were treated with or without PLATINUM-401 for 48 h. Cytosolic extracts were then prepared from cells for luciferase and […] activities measurements. […]
# Cell proliferation and TUNEL assays—Proliferating cells were first treated with or without PLATINUM-401 for up to 48 h. A portion of cells were harvested for BrdU incorporation following the manufacturer's (BD Biosciences Pharmingen, San Diego, Calif.) instructions and analyzed by flow cytometry. Harvested cells were also analyzed for apoptosis via detection of TdT-mediated dUTP nick-end labeling (TUNEL) assay using Apoptosis Detection Systems Fluorescein according to the manufacturer's (Roche, Indianapolis, Ind.) instructions. […]
# as §1
smiles,measurement,setting,value
CC(O)CN1CCN(CC(C)O)CC1 (stereo not drawn) [PLATINUM-401],time at which IL-6-induced Stat3 activation was inhibited,[1]; IL-6-stimulated NIH3T3,≤ 30 min
same,ligand-induced activation of Stat3 DNA-binding activity,[1]; time- and dose-dependent,inhibits
same,induction of c-fos promoter-driven luciferase reporter activity,pLucSRE,no inhibitory effects
